Experimental data published in patent US7015241B2, “Appetite-stimulating agents and remedies for anorexia” (Eisai Co., Ltd., priority 2001, dated 2006).

Tests used:
BDF1 mice = assay: Appetite-stimulating and body weight-increasing effects, intraperitoneal administration once a day for 15 days; assay type: in vivo, mouse; details: BDF1 mice (7 weeks old, female), i.p. once a day for 15 days, vs control group; for body weight: FIG. 1; for food intake: FIG. 2
Protocol: (§1) A subjective compound was suspended in saline containing 3.5% dimethylsulfoxide and 6.5% Tween 80, and intraperitoneally administered to BDF1 mice (7 weeks old, female) in a given amount once a day for 15 days (day 0 to day 14). To mice of a control group, saline containing 3.5% dimethylsulfoxide and 6.5% Tween 80 was intraperitoneally administered. Administration was conducted at 1 p.m. every day, and the body weight (day 0 to day 15) and the food intake since the preceding day (day 1 to day 15) were weighed immediately before the administration. The experiments were conducted using 5 mice per group for each of the drug-administered group and the control group. The numbers of the compound examples are the same as in the list described above (hereinafter, the same applies).

mice = assay: Toxicity observation on successive administration to mice for 15 days; assay type: in vivo; details: 100 mg/kg and 200 mg/kg successively for 15 days
Protocol: as §1
Thus, it is considered that the compound represented by the general formula (I) has low toxicity.

Interleukin-1-beta = assay: Gene expression analysis of white adipose tissues by GeneChip (Affymetrix) Murine Genome U74A; assay type: in vivo, mouse; details: day 15, 200 mg/kg i.p. once a day for 15 days, BDF1 mice, Accession M15131
Protocol: (§2) The compound of the Compound 17 was suspended in saline containing 3.5% dimethylsulfoxide and 6.5% Tween 80, and intraperitoneally administered to BDF1 mice (7 weeks old, female) in an amount of 200 mg/kg once a day for 15 days (day 0 to day 14). To mice of a control group, saline containing 3.5% dimethylsulfoxide and 6.5% Tween 80 was intraperitoneally administered. The experiments were conducted using 5 mice per group for each of the drug-administered group and the control group. On day 15, white adipose tissues were collected from the mice of the drug-administered group and the control group, and were examined for expression levels of mRNA using GeneChip (Affymetrix) Murine Genome U74A. The experimental operation was conducted in accordance with GeneChip Expression Analysis Technical Manual, and the quantitative analysis was conducted using GeneChip Software.

Interleukin-6 = assay: as above; assay type: in vivo, mouse; details: day 15, 200 mg/kg i.p. once a day for 15 days, BDF1 mice, Accession X54542
Protocol: as §2

[1] = tested on: griPGHS (Glucocorticoid-regulated inflammatory prostaglandin G/H synthase); assay: as above; assay type: in vivo, mouse; details: day 15, 200 mg/kg i.p. once a day for 15 days, BDF1 mice, Accession M88242
Protocol: as §2

| SMILES | body weight (BDF1 mice) | food intake (BDF1 mice) | body weight increase (mice) | condition of the mice (mice) | toxicity (mice) | Expression level ratio (drug-administered group/control group), Interleukin-1-beta mRNA (Interleukin-1-beta) | Expression level ratio (drug-administered group/control group), Interleukin-6 mRNA (Interleukin-6) | Expression level ratio (drug-administered group/control group), griPGHS mRNA [1] |
| --- | --- | --- | --- | --- | --- | --- | --- | --- |
| Cc1ccc(NS(=O)(=O)c2cccc(C#N)c2)c2[nH]cc(C#N)c12 [Compound 94, 3-Cyano-N-(3-cyano-4-methyl-1H-indol-7-yl)-benzenesulfonamide] | increased | increased | body weight increase depending on dose | quite normal condition | no observation indicating toxicity |  |  |  |
| N#Cc1ccc(S(=O)(=O)Nc2cccc3c(Cl)c[nH]c23)cc1 [Compound 10, N-(3-Chloro-1H-indol-7-yl)-4-cyanobenzenesulfonamide] | increased | increased | body weight increase depending on dose | quite normal condition | no observation indicating toxicity |  |  |  |
| N#Cc1c[nH]c2c(NS(=O)(=O)c3cccc(Cl)c3)cccc12 [Compound 17, 3-Chloro-N-(3-cyano-1H-indol-7-yl)benzenesulfonamide] | increased | increased | body weight increase depending on dose | quite normal condition | no observation indicating toxicity | 22% | 24% | 26% |
| N#Cc1cccc(S(=O)(=O)Nc2cccc3c(C#N)c[nH]c23)c1 [Compound 51, 3-Cyano-N-(3-cyano-1H-indol-7-yl)benzenesulfonamide] | increased | increased | body weight increase depending on dose | quite normal condition | no observation indicating toxicity |  |  |  |
